Measured values reported in patent US20040175383A1, “Methods and compositions for treatment of otitis media” (priority 2002, published 2004).
Read-outs that look alike come from different tables or passages of the source.

How the values were obtained:
[1] = tested on: acute otitis media induced by Streptococcus pneumoniae; type: in vivo, chinchilla
Protocol: All study animals were initially anesthetized to allow baseline hearing testing (electrocochleography and tympanometry) and to allow bacteria (Streptococcus pneumoniae) to be injected across the thin bone covering the middle ear (dorsal bulla) to induce a middle ear infection bilaterally. After allowing the inflammation to become established for 3 to 4 days, the ears were graded for severity of middle ear inflammation. Half the ears were injected with alpha 1-antitrypsin (100 mg/ml)half with saline. All animals received systemic antibacterial treatment (enrofloxacin). […] Assessment was given quantiatively according to the following table: [table] Hearing assessment were also performed throughout the study and following euthanasia at the end of study, temporal bone specimens were obtained from all ears for histopathological analysis.

[2] = in vivo
Protocol: (§1) Prospective, randomized, controlled trial in the chinchilla model.
(§2) After completing baseline auditory testing and bilateral transpalatal obstruction of the Eustachian tube (ETO), chinchillas received weekly transbullar injections of protease inhibitor (alpha 1-antitrypsin, ilomastat, or both), vehicle, or saline. After one month, hearing was tested and the animals were sacrificed. Temporal bone histopathology was performed.
(§3) A total of 96 healthy adult chinchillas of either sex, 400-600 grams, were used in this experiment. Prior to entry into the study, all animals were otomicroscopically free of middle ear pathology. All animals underwent auditory testing and bilateral transpalatal obstruction of the Eustachian tube, followed by immediate transbullar injection (across the thin bone covering the dorsal aspect of the middle ear) of saline or vehicle solution, with or without protease inhibitor. Thus, there were five treatment groups: saline, vehicle solution, vehicle with alpha 1-antitrypsin (100 μg /ml), vehicle with ilomastat (100 μg /ml), and vehicle with alpha 1-antitrypsin and ilomastat (100 μg /ml of each). Weekly thereafter, animals received a light anesthetic for ear examinations, transbullar sampling of the middle ear fluid, and transbullar reinjection of saline or the vehicle +/− protease inhibitor. One month after ETO, animals were anesthetized, middle ear fluid was removed, and auditory testing was performed immediately prior to sacrifice. Temporal bones were harvested for histopathological analysis.
(§4) Ilomastat was prepared by substituting alpha 1-antitrypsin. Vehicle was similarly prepared, without the addition of any protease inhibitor. Injectable, 0.9% normal saline was used as the non-treatment control.
(§5) Briefly, the palate was split and the Eustachian tube orifices were bluntly palpated. The orifices were denuded of mucosa, the deeper tissues cauterized, and the lumen packed with Gelfoam sponge. The palate was reapproximated with a single layer of polyglycolic acid sutures.
(§6) Auditory Evaluation: Assessment of auditory thresholds was performed using electrocochleography. […] Electrocochleographic thresholds were measured for clicks and tone pips at 4, 8, 12, and 16 kHz. Stimulus generation was executed by an auditory electrophysiology workstation with SigGen™ and AeP™ software (Tucker-Davis Technologies, Gainesville, Fla.) and Etymotic transducers (ER-2, Elk Grove Village, Ill.). Stimuli were introduced with an insert earphone tube placed into the external auditory canal, just medial to the crus of the helix. Auditory thresholds were evaluated by decreasing stimulus intensity in 5 dB increments, from a maximum of 100 dB, until the waveform disappeared. At that point, the stimulus intensity was increased in 5 dB increments until the waveform re-emerged. […]

[3] = tested on: inner ear / hearing (electrocochleographic thresholds); conditions: in vivo
Protocol: as §1, §2, §3, §4, §5, §6

[4] = tested on: MMP activity (tMMP, predominantly MMPs 2 and 9) in MEE samples; test: MMP activity in human middle ear effusion samples in the presence of ilomastat (colorimetric synthetic substrate assay); type: biochemical; parameters: Inhibition of MMP activity, overall / Ilomastat-MMP Inhibition % (mean inhibition): concentration or dose not given beside the values; conditions: for Ilomastat-MMP Inhibition % (mean inhibition) / MMP >30% Inhibition (percent of samples that had enzyme activity inhibited by >30%): MEE samples
Excerpt: Human Subjects & Sample Collection: Middle ear effusion (MEE) samples were collected from all consenting patients that presented to the investigators for the treatment of OM. Most samples were taken from subjects at the time of myringotomy, with or without tube placement, for recurrent acute otitis media (RAOM) and chronic otitis media with effusion (COME). Less commonly, samples were collected upon presentation with acute post-tympanostomy otorrhea (APTO) or with chronic suppurative otitis media (CSOM). Samples were aspirated with a Juhn Tymp-Tap (Medtronic-Xomed, Jacksonville, Fla.). The aspiration device was rinsed—and sample diluted—with 500 μl of normal saline and immediately placed on ice for transport to the investigators' laboratories. Samples were centrifuged to remove cellular material then divided into aliquots and frozen until batch processing could be performed.
Protease and Inhibition Analysis: Active (aMMP) and proenzyme (pMMP) forms of MMPs 2 and 9 were measured using a gelatin zymography technique. MMP activity (tMMP, but predominantly MMPs 2 and 9) present in MEE samples was measured using a […] assay that uses a synthetic substrate that reduces Ellmans reagent upon cleavage. Because two different activity assays were used that detected different types and levels of MMPs, a direct comparison between aMMP, pMMP and tMMP was not considered valid. Human neutrophil elastase (HNE) activity was measured using a standard technique. Results were expressed as change in absorbance over time (mAU/min). […] Samples with excessive activity levels were tested by serial dilution. MMP activity was measured in the presence of physiologically deliverable levels of ilomastat.
Statistical Analysis: An analysis of variance was performed on the enzyme activities and mean inhibition of activities to determine if there were differences activities across diagnoses, middle ear findings. If there were statistically significant differences, […] tests were performed. […] The distribution of patients with an activities greater than 3 mAU/min and inhibition greater than 30% was tested using Fisher's exact test to determine if there was a difference in these distributions across diagnoses.

[5] = tested on: inner ear / hearing (electrocochleographic thresholds); test: Ototoxicity study in chinchilla with Eustachian tube obstruction, weekly transbullar injection of protease inhibitors; conditions: applied to the middle ear
Protocol: as §1, §2, §3, §4, §5, §6

Molecule: rAAT: Recombinant alpha 1-antitrypsin, a serine protease inhibitor, expressed in recombinant yeast cells and purified by column chromatography
- TM Score ([1]; Day 1, otomicroscopic scale 0 (normal) to 6 (perforated)): 0
- TM Score ([1]; Day 4, scale 0-6): 2.167
- TM Score ([1]; Day 6, scale 0-6): 4.17
- TM Score ([1]; Day 8, scale 0-6): 3.5
- TM Score ([1]; Day 10, scale 0-6): 2.8
- TM Score ([1]; Day 14, scale 0-6): 1.25
- TM Score ([1]; Day 16, scale 0-6): 0.75
- TM Score ([1]; Day 18, scale 0-6): 0.5
- TM Score ([1]; Day 20, scale 0-6): 0.5
- TM Score ([1]; Day 22, scale 0-6): 0
- TM Score ([1]; Day 24, scale 0-6): 0
- TM Score ([1]; Day 26, scale 0-6): 0
- TM Score ([1]; Day 28, scale 0-6): 0
- Middle ear inflammation by otomicroscopy, compared with saline ([1]; otic administration, with systemic enrofloxacin): mitigated the inflammatory process more rapidly than saline
- Time to resolution of clinical manifestations of otitis media ([1]; single application of rAAT, control 26 days): 22 days
- Persistence of middle ear effusion at the final treatment day (percent of ears) [2]: 100%
- Ototoxicity in the chinchilla model [3]: lack ototoxicity

Molecule: CNC(=O)[C@H](Cc1c[nH]c2ccccc12)NC(=O)[C@@H](CC(=O)NO)CC(C)C [Ilomastat, N-[2(R)-2(hydroxyamidocarbonylmethyl)-4-methylpentanoyl]-L-tryptophan methyl amide]
- Ilomastat-MMP Inhibition % (mean inhibition) ([4]; diagnosis APTO): 41.2%
- MMP >30% Inhibition (percent of samples that had enzyme activity inhibited by >30%) ([4]; diagnosis APTO): 57%
- Ilomastat-MMP Inhibition % (mean inhibition) ([4]; diagnosis COME): 70.0%
- MMP >30% Inhibition (percent of samples that had enzyme activity inhibited by >30%) ([4]; diagnosis COME): 86%
- Ilomastat-MMP Inhibition % (mean inhibition) ([4]; diagnosis CSOM): 51.5%
- MMP >30% Inhibition (percent of samples that had enzyme activity inhibited by >30%) ([4]; diagnosis CSOM): 40%
- Ilomastat-MMP Inhibition % (mean inhibition) ([4]; diagnosis Cholesteatoma): 31.5%
- MMP >30% Inhibition (percent of samples that had enzyme activity inhibited by >30%) ([4]; diagnosis Cholesteatoma): 71%
- Ilomastat-MMP Inhibition % (mean inhibition) ([4]; diagnosis RAOM): 85.5%
- MMP >30% Inhibition (percent of samples that had enzyme activity inhibited by >30%) ([4]; diagnosis RAOM): 100%
- Ilomastat-MMP Inhibition % (mean inhibition) ([4]; diagnosis RAOM/COME): 81.4%
- MMP >30% Inhibition (percent of samples that had enzyme activity inhibited by >30%) ([4]; diagnosis RAOM/COME): 100%
- Percent of MEEs with significant inhibition (>30% reduction) of MMP activity ([4]; MEEs with significant MMP activity (>3 mAU/min)): 80%
- Inhibition of MMP activity, overall ([4]; all MEE samples): 64%
- Persistence of middle ear effusion at the final treatment day (percent of ears) [2]: 83%
- Ototoxicity in the chinchilla model [5]: lack ototoxicity
